Counter-ions that a name gives are not always drawn. Some results are limits rather than exact numbers.

What all share (format): functional
The subject of one test is ZR-75-1. Put plainly: Cytotoxicity against human ZR-75-1 cells by sulforhodamine B method. In general terms: The SRB assay estimates cell density from bound dye.
In a further test the test system is A549. Put plainly: Cytotoxicity against human A549 cells by sulforhodamine B method.
Another test deals with A2780. Put plainly: Cytotoxicity against human A2780 cells by sulforhodamine B method.
The test system of a further test is HOP-62. Put plainly: Cytotoxicity against human HOP62 cells by sulforhodamine B method.
The next test concerns KB. Put plainly: Cytotoxicity against human KB cells by sulforhodamine B method.
In another test the test system is SiHa. Put plainly: Cytotoxicity against human SiHa cells by sulforhodamine B method.
Test [1] is described as follows: Cytotoxicity against human Gurav cells by sulforhodamine B method.
A further test relates to MCF7. Put plainly: Cytotoxicity against human MCF7 cells by sulforhodamine B method.
Another test deals with COLO 205. Put plainly: Cytotoxicity against human COLO205 cells by sulforhodamine B method.
Test [2] in a line: Cytotoxicity against human DWD cells by sulforhodamine B method.
The subject of a further test is PC-3. Put plainly: Cytotoxicity against human PC3 cells by sulforhodamine B method.

As usually defined, the GI50 is the concentration at which growth is held to half of that of the control. In the case of `COc1cc2c(cc1OCCCCCOc1ccc3c(c1)CC[C@@H]1[C@@H]3CC[C@]3(C)[C@@H](O)CC[C@@H]13)N=C[C@@H]1C[C@@H](F)CN1C2=O`, the GI50 with ZR-75-1 was 0.17 µM; with A549, 0.18 µM; in the test with A2780 it was 0.19 µM; in the test with HOP-62, 0.19 µM; in the test on KB it was 2.17 µM; in the test on SiHa, 2.31 µM. The GI50 in test [1] turned out to be 0.18 µM; with MCF7 it was 0.15 µM; in the test with COLO 205, 0.17 µM; in test [2] it was 1.9 µM; in the test on PC-3, 0.19 µM.
As for `COc1cc2c(cc1OCCCOc1ccc3c(c1)CC[C@@H]1[C@@H]3CC[C@]3(C)[C@@H](O)CC[C@@H]13)N=C[C@@H]1CCCN1C2=O`, the GI50 with ZR-75-1 came out at 1.19 µM; in the test with A549, 2.1 µM; in the test with A2780, 1.19 µM; with HOP-62, 2.23 µM; in the test with KB it was 2.11 µM; with SiHa, 2.12 µM. Moreover, the GI50 in test [1] was 2.05 µM; with MCF7, 0.17 µM; in the test with COLO 205, 0.16 µM; in test [2] it was 0.17 µM; in the test with PC-3, 2.08 µM.
Take `COc1cc2c(cc1OCCCCCN1CCN(CCCCCOc3ccc4c(c3)CC[C@@H]3[C@@H]4CC[C@]4(C)[C@@H](O)CC[C@@H]34)CC1)N=C[C@@H]1CCCN1C2=O`: the GI50 in the test with ZR-75-1 amounted to 0.17 µM; in the test with A549, 0.16 µM; with A2780, 1.7 µM; in the test with HOP-62, 1.17 µM; in the test with KB it was 0.19 µM; in the test with SiHa, 0.17 µM. For the same molecule, the 50% growth inhibitory concentration (GI50) came out at 0.19 µM in [1]; 0.14 µM in the test with MCF7; 1.16 µM with COLO 205; 0.17 µM in [2]; 0.19 µM in the test on PC-3.
On to `COc1cc2c(cc1OCCCN1CCN(CCCOc3ccc4c(c3)CC[C@@H]3[C@@H]4CC[C@]4(C)[C@@H](O)CC[C@@H]34)CC1)N=C[C@@H]1CC(F)(F)CN1C2=O`, for which the GI50 in the test with ZR-75-1 stood at 0.12 µM; with A549 it was 0.12 µM; with A2780, 0.11 µM; with HOP-62, 0.15 µM; in the test with KB, 0.17 µM; in the test on SiHa it was 0.16 µM. For the same molecule, the GI50 in [1] was 0.13 µM; in the test on MCF7 it was less than 0.1 µM; in the test on COLO 205, 0.14 µM; in [2], 0.1 µM; with PC-3 it was 0.13 µM.
Turning to `COc1cc2c(cc1OCCCCCN1CCN(CCCCCOc3ccc4c(c3)CC[C@@H]3[C@@H]4CC[C@]4(C)[C@@H](O)CC[C@@H]34)CC1)N=C[C@@H]1C[C@@H](F)CN1C2=O`, the GI50 is less than 0.1 µM with ZR-75-1; 0.11 µM in the test with A549; 0.11 µM with A2780; 0.13 µM with HOP-62; 0.14 µM with KB; 0.16 µM with SiHa. Also, the GI50 in [1] was 0.13 µM; in the test on MCF7 it was 0.13 µM; with COLO 205, 0.14 µM; in test [2], 0.15 µM; in the test with PC-3 it was 0.17 µM.
On to `COc1cccc2c1C(=O)c1c(O)c3c(c(O)c1C2=O)C[C@@](O)(C(=O)CO)C[C@@H]3O[C@H]1C[C@H](N)[C@H](O)[C@H](C)O1` [DOXORUBICIN HYDROCHLORIDE], for which the GI50 with A2780 was determined as 0.16 µM; in the test with HOP-62, 0.14 µM; with KB, 0.17 µM; in the test with SiHa it was 0.17 µM; in test [1] it was 0.17 µM; with MCF7, 0.17 µM. Also, the GI50 in the test on COLO 205 was found to be 0.14 µM; in test [2], 0.1 µM.
As to `COc1cc2c(cc1OCc1cn(CCCOc3ccc4c(c3)CC[C@@H]3[C@@H]4CC[C@]4(C)[C@@H](O)CC[C@@H]34)nn1)N=C[C@@H]1CCCN1C2=O`, the GI50 with ZR-75-1 was determined as 0.19 µM; in the test with A549 it was 0.18 µM; in the test on A2780, 0.17 µM; in the test on HOP-62 it was 1.18 µM; in the test on KB, 0.31 µM; in the test with SiHa, 1.14 µM. The GI50 in test [1] is 0.17 µM; in the test with MCF7, 0.12 µM; in the test with COLO 205, 0.17 µM; in test [2] it was 0.16 µM; in the test on PC-3 it was 0.19 µM.
For `COc1cc2c(cc1OCCCOc1ccc3c(c1)CC[C@@H]1[C@@H]3CC[C@]3(C)[C@@H](O)CC[C@@H]13)N=C[C@@H]1CC(F)(F)CN1C2=O`, the GI50 in the test on ZR-75-1 came to 0.18 µM; in the test on A549, 2.81 µM; in the test on A2780, 2.1 µM; with HOP-62, 2.11 µM; in the test with KB, 0.15 µM; with SiHa it was 2.81 µM. The GI50 in test [1] is 2.18 µM; in the test on MCF7, 0.17 µM; in the test on COLO 205, 0.1 µM; in test [2] it was 2.04 µM; in the test with PC-3, 2.4 µM.
Turning to `COc1cc2c(cc1OCc1cn(CCCCCOc3ccc4c(c3)CC[C@@H]3[C@@H]4CC[C@]4(C)[C@@H](O)CC[C@@H]34)nn1)N=C[C@@H]1CCCN1C2=O`, the GI50 with ZR-75-1 was 0.11 µM; with A549, 0.19 µM; with A2780 it was 0.17 µM; with HOP-62, 1.69 µM; in the test on KB it was 0.8 µM; in the test on SiHa, 1.17 µM. The GI50 was 0.18 µM in test [1]; 0.14 µM with MCF7; 0.17 µM with COLO 205; 0.17 µM in test [2]; 0.19 µM in the test on PC-3.
In the case of `COc1cc2c(cc1OCCCCCOc1ccc3c(c1)CC[C@@H]1[C@@H]3CC[C@]3(C)[C@@H](O)CC[C@@H]13)N=C[C@@H]1CCCN1C2=O`, the GI50 in the test on ZR-75-1 was determined as 1.19 µM; in the test on A549, 2.2 µM; with A2780 it was 1.19 µM; in the test on HOP-62, 2.24 µM; in the test with KB, 2.13 µM; in the test with SiHa, 2.18 µM. Moreover, the GI50 came to 2.04 µM in test [1]; 0.17 µM with MCF7; 0.19 µM in the test with COLO 205; 0.18 µM in [2]; 2.19 µM with PC-3.
Consider `COc1cc2c(cc1OCCCCCOc1ccc3c(c1)CC[C@@H]1[C@@H]3CC[C@]3(C)[C@@H](O)CC[C@@H]13)N=C[C@@H]1CC(F)(F)CN1C2=O`, for which the GI50 came out at 0.19 µM in the test with ZR-75-1; 2.81 µM in the test on A549; 2.12 µM in the test with A2780; 2.11 µM in the test with HOP-62; 0.14 µM in the test on KB; 2.81 µM in the test on SiHa. For the same molecule, the GI50 in test [1] stood at 2.19 µM; in the test on MCF7 it was 0.17 µM; in the test with COLO 205, 0.2 µM; in test [2], 2.17 µM; in the test with PC-3, 2.42 µM.
Regarding `COc1cc2c(cc1OCc1cn(CCCOc3ccc4c(c3)CC[C@@H]3[C@@H]4CC[C@]4(C)[C@@H](O)CC[C@@H]34)nn1)N=C[C@@H]1CC(F)(F)CN1C2=O`, the GI50 in the test with ZR-75-1 came to 0.17 µM; with A549 it was 0.17 µM; in the test on A2780, 1.27 µM; in the test with HOP-62, 0.18 µM; in the test with KB, 0.19 µM; in the test on SiHa, 1.12 µM. Further, the GI50 came out at 0.17 µM in test [1]; 0.11 µM in the test on MCF7; 0.14 µM with COLO 205; 0.17 µM in [2]; 0.14 µM in the test with PC-3.
As to `COc1cc2c(cc1OCCCOc1ccc3c(c1)CC[C@@H]1[C@@H]3CC[C@]3(C)[C@@H](O)CC[C@@H]13)N=C[C@@H]1C[C@@H](F)CN1C2=O`, the GI50 in the test on ZR-75-1 was determined as 0.14 µM; with A549, 0.18 µM; with A2780 it was 0.17 µM; in the test with HOP-62, 0.18 µM; in the test with KB, 2.16 µM; in the test with SiHa, 2.12 µM. Also, the GI50 in test [1] is 0.19 µM; in the test on MCF7 it was 0.14 µM; with COLO 205, 0.16 µM; in test [2], 1.7 µM; with PC-3 it was 0.19 µM.
Turning to `COc1cc2c(cc1OCCCCCN1CCN(CCCCCOc3ccc4c(c3)CC[C@@H]3[C@@H]4CC[C@]4(C)[C@@H](O)CC[C@@H]34)CC1)N=C[C@@H]1CC(F)(F)CN1C2=O`, the GI50 stood at 0.12 µM in the test on ZR-75-1; 0.13 µM in the test on A549; 0.16 µM in the test on A2780; 0.17 µM in the test with HOP-62; 0.81 µM in the test with KB; 0.19 µM in the test with SiHa. Further, the GI50 in [1] turned out to be 0.15 µM; with MCF7, 0.14 µM; in the test with COLO 205, 0.17 µM; in [2], 1.32 µM; in the test with PC-3 it was 0.19 µM.

The values are drawn from ChEMBL document CHEMBL1765029, “Synthesis and biological evaluation of estradiol linked pyrrolo[2,1-c][1,4]benzodiazepine (PBD) conjugates as potential anticancer agents” (2011).
